Target: T1, KCNQ 2/3 channels (HEK293 cells stably expressing human KCNQ2 and KCNQ3 subunits) (Homo sapiens, UniProt O43525+O43526)
T1 construct: expressed in transfected cells; host or cells: HEK293
Assay: KCNQ2/3 channel activation, thallium flux FLIPR assay with BTC-AM dye
Type: cell-based
Settings: for Emax: HEK293, maximum response relative to the response produced by 10 μM retigabine (set at 100%), read-out: Max. %; for EC50: HEK293 cells expressing human KCNQ2 and KCNQ3, thallium flux, FLIPR
How it was run: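 HEK293 cells stably expressing human KCNQ2/KCNQ3 were loaded with BTC-AM (3 μg/mL, 2 h, RT) and preincubated with compound for 4 min in pH 7.3 gluconate buffer containing 0.1 mM ouabain. Flux was triggered by 6 mM TlNO3/10 mM K2SO4 and read for 3 min; EC50 came from summed responses over basal, with maximum relative to 10 μM retigabine (100%).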

Compound | Emax [%] | EC50 [nM]
O=C(Cc1ccc(Cl)cc1Cl)Nn1nc(-c2ccccc2)c2ccccc2c1=O [Example 83, 2-(2,4-dichlorophenyl)-N-(1-oxo-4-phenylphthalazin-2(1H)-yl)acetamide] | 13 | > 10000
O=C(CC1(C(F)(F)F)CCCC1)Nn1nc(-c2ccc(Cl)cc2)c2ccccc2c1=O [Example 87, N-[4-(4-chlorophenyl)-1-oxophthalazin-2(1H)-yl]-2-[1-(trifluoromethyl)cyclopentyl]acetamide] | 104 | 500 to 1000
O=C(Nn1nc(-c2ccc(Cl)cc2)c2ccccc2c1=O)C(F)c1ccccc1 (centres unmarked) [Example 90, N-[4-(4-chlorophenyl)-1-oxophthalazin-2(1H)-yl]-2-fluoro-2-phenylacetamide] | 1 | > 10000
O=C(Cc1cccnc1)Nn1nc(-c2ccc(Cl)cc2)c2ccccc2c1=O [Example 93, N-[4-(4-chlorophenyl)-1-oxophthalazin-2(1H)-yl]-2-(pyridin-3-yl)acetamide] | 149 | 1000 to 10000
O=C(Cc1cccc(OC(F)(F)F)c1)Nn1nc(-c2ccc(Cl)cc2)c2ccccc2c1=O [Example 98, N-[4-(4-chlorophenyl)-1-oxophthalazin-2(1H)-yl]-2-[3-(trifluoromethoxy)phenyl]acetamide] | 80 | 500 to 1000
O=C(Cc1ccc(C(F)(F)F)cc1)Nn1nc(-c2ccc(Cl)cc2)c2ccccc2c1=O [Example 99, N-[4-(4-chlorophenyl)-1-oxophthalazin-2(1H)-yl]-2-[4-(trifluoromethyl)phenyl]acetamide] | 81 | 500 to 1000
CN(C)c1ccc(CC(=O)Nn2nc(-c3ccc(Cl)cc3)c3ccccc3c2=O)cc1 [Example 101, N-[4-(4-chlorophenyl)-1-oxophthalazin-2(1H)-yl]-2-[4-(dimethylamino)phenyl]acetamide] | 57 | 1000 to 10000
O=C(Cc1ccc(Br)cc1)Nn1nc(-c2ccc(Cl)cc2)c2ccccc2c1=O [Example 102, 2-(4-bromophenyl)-N-[4-(4-chlorophenyl)-1-oxophthalazin-2(1H)-yl]acetamide] | 112 | 500 to 1000
COc1ccc(CC(=O)Nn2nc(-c3ccc(Cl)cc3)c3ccccc3c2=O)cc1 [Example 104, N-[4-(4-chlorophenyl)-1-oxophthalazin-2(1H)-yl]-2-(4-methoxyphenyl)acetamide] | 97 | 1000 to 10000
CS(=O)(=O)c1ccc(CC(=O)Nn2nc(-c3ccc(Cl)cc3)c3ccccc3c2=O)cc1 [Example 111, N-[4-(4-chlorophenyl)-1-oxophthalazin-2(1H)-yl]-2-[4-(methylsulfonyl)phenyl]acetamide] | 25 | > 10000
O=C(Cc1ccc(Cl)c(F)c1)Nn1nc(-c2ccc(Cl)cc2)c2ccccc2c1=O [Example 114, 2-(4-chloro-3-fluorophenyl)-N-[4-(4-chlorophenyl)-1-oxophthalazin-2(1H)-yl]acetamide] | 119 | 500 to 1000
CC1(C)[C@H]2CC[C@@H](CC(=O)Nn3nc(-c4ccc(Cl)cc4)c4ccccc4c3=O)[C@@H]1C2 [Example 115, N-[4-(4-chlorophenyl)-1-oxophthalazin-2(1H)-yl]-2-[(1S,2S,5S)-6,6-dimethylbicyclo[3.1.1]hept-2-yl]acetamide] | 69 | 100 to 500
O=C(CC1(c2ccccc2)CCCC1)Nn1nc(-c2ccc(Cl)cc2)c2ccccc2c1=O [Example 119, N-[4-(4-chlorophenyl)-1-oxophthalazin-2(1H)-yl]-2-(1-phenylcyclopentyl)acetamide] | 12 | > 10000
O=C(Cc1ccc2ccccc2c1)Nn1nc(-c2ccc(Cl)cc2)c2ccccc2c1=O [Example 121, N-[4-(4-chlorophenyl)-1-oxophthalazin-2(1H)-yl]-2-(2-naphthyl)acetamide] | 201 | 1000 to 10000
O=C(CCC(F)(F)F)Nn1nc(-c2ccc(Cl)cc2)c2ccccc2c1=O [Example 123, N-[4-(4-chlorophenyl)-1-oxophthalazin-2(1H)-yl]-4,4,4-trifluorobutanamide] | 48 | 500 to 1000
O=C(CC(F)(F)F)Nn1nc(-c2ccc(Cl)cc2)c2ccccc2c1=O [Example 124, N-[4-(4-chlorophenyl)-1-oxophthalazin-2(1H)-yl]-3,3,3-trifluoropropanamide] | 33 | 1000 to 10000

Further lines, results first:

Emax [%] | EC50 [nM] | Compound
124 | 100 to 500 | O=C(Cc1ccc(Cl)cc1)Nn1nc(C2CCC2)c2ccccc2c1=O [Example 70, 2-(4-chlorophenyl)-N-(4-cyclobutyl-1-oxophthalazin-2(1H)-yl)acetamide]
130 | < 100 | O=C(Cc1ccc(Cl)cc1)Nn1nc(C2CCCC2)c2ccccc2c1=O [Example 72, 2-(4-chlorophenyl)-N-(4-cyclopentyl-1-oxophthalazin-2(1H)-yl)acetamide]
142 | < 100 | O=C(Cc1cc(F)cc(F)c1)Nn1nc(C2CCCC2)c2ccccc2c1=O [Example 73, N-(4-cyclopentyl-1-oxophthalazin-2(1H)-yl)-2-(3,5-difluorophenyl)acetamide]
243 | < 100 | O=C(CC12CC3CC(CC(C3)C1)C2)Nn1nc(C2CCCCC2)c2ccccc2c1=O [Example 75, 2-(adamantan-1-yl)-N-(4-cyclohexyl-1-oxophthalazin-2(1H)-yl)acetamide]
157 | 100 to 500 | O=C(Cc1ccc(Cl)cc1)Nn1nc(C2CCCCC2)c2ccccc2c1=O [Example 76, 2-(4-chlorophenyl)-N-(4-cyclohexyl-1-oxophthalazin-2(1H)-yl)acetamide]
145 | < 100 | O=C(Cc1cc(F)cc(F)c1)Nn1nc(C2CCCCC2)c2ccccc2c1=O [Example 77, N-(4-cyclohexyl-1-oxophthalazin-2(1H)-yl)-2-(3,5-difluorophenyl)acetamide]
80 | 100 to 500 | COC(=O)c1ccc(-c2nn(NC(=O)Cc3ccc(Cl)cc3)c(=O)c3ccccc23)cc1 [Example 80, methyl 4-(3-{[(4-chlorophenyl)acetyl]amino}-4-oxo-3,4-dihydrophthalazin-1-yl)benzoate]
156 | 100 to 500 | CC(C)(CC(=O)Nn1nc(-c2ccccc2)c2ccccc2c1=O)c1ccccc1 [Example 82, 3-methyl-N-(1-oxo-4-phenylphthalazin-2(1H)-yl)-3-phenylbutanamide]
117 | 100 to 500 | CC(C)(CC(=O)Nn1nc(-c2ccc(Br)cc2)c2ccccc2c1=O)c1ccccc1 [Example 85, N-[4-(4-bromophenyl)-1-oxophthalazin-2(1H)-yl]-3-methyl-3-phenylbutanamide]
166 | < 100 | CC1(CC(=O)Nn2nc(-c3ccc(Cl)cc3)c3ccccc3c2=O)CCCC1 [Example 86, N-[4-(4-chlorophenyl)-1-oxophthalazin-2(1H)-yl]-2-(1-methylcyclopentyl)acetamide]
118 | 100 to 500 | CC(C)(CC(=O)Nn1nc(-c2ccc(Cl)cc2)c2ccccc2c1=O)c1ccccc1 [Example 89, N-[4-(4-chlorophenyl)-1-oxophthalazin-2(1H)-yl]-3-methyl-3-phenylbutanamide]
79 | 100 to 500 | O=C(Cc1cccc(C(F)(F)F)c1)Nn1nc(-c2ccc(Cl)cc2)c2ccccc2c1=O [Example 100, N-[4-(4-chlorophenyl)-1-oxophthalazin-2(1H)-yl]-2-[3-(trifluoromethyl)phenyl]acetamide]
140 | 100 to 500 | O=C(Cc1cccc(Cl)c1)Nn1nc(-c2ccc(Cl)cc2)c2ccccc2c1=O [Example 103, 2-(3-chlorophenyl)-N-[4-(4-chlorophenyl)-1-oxophthalazin-2(1H)-yl]acetamide]
84 | 100 to 500 | COc1cccc(CC(=O)Nn2nc(-c3ccc(Cl)cc3)c3ccccc3c2=O)c1 [Example 105, N-[4-(4-chlorophenyl)-1-oxophthalazin-2(1H)-yl]-2-(3-methoxyphenyl)acetamide]
98 | 100 to 500 | Cc1ccc(CC(=O)Nn2nc(-c3ccc(Cl)cc3)c3ccccc3c2=O)cc1 [Example 107, N-[4-(4-chlorophenyl)-1-oxophthalazin-2(1H)-yl]-2-(4-methylphenyl)acetamide]
96 | 100 to 500 | Cc1cccc(CC(=O)Nn2nc(-c3ccc(Cl)cc3)c3ccccc3c2=O)c1 [Example 108, N-[4-(4-chlorophenyl)-1-oxophthalazin-2(1H)-yl]-2-(3-methylphenyl)acetamide]
138 | < 100 | O=C(CC1CCCC1)Nn1nc(-c2ccc(Cl)cc2)c2ccccc2c1=O [Example 109, N-[4-(4-chlorophenyl)-1-oxophthalazin-2(1H)-yl]-2-cyclopentylacetamide]
120 | < 100 | CC(C)CCC(=O)Nn1nc(-c2ccc(Cl)cc2)c2ccccc2c1=O [Example 110, N-[4-(4-chlorophenyl)-1-oxophthalazin-2(1H)-yl]-4-methylpentanamide]
92 | 100 to 500 | O=C(Cc1ccc(Cl)s1)Nn1nc(-c2ccc(Cl)cc2)c2ccccc2c1=O [Example 112, N-[4-(4-chlorophenyl)-1-oxophthalazin-2(1H)-yl]-2-(5-chloro-2-thienyl)acetamide]
132 | < 100 | O=C(CC12CC3CC(CC(C3)C1)C2)Nn1nc(-c2ccc(Cl)cc2)c2ccccc2c1=O [Example 116, 2-(adamantan-1-yl)-N-[4-(4-chlorophenyl)-1-oxophthalazin-2(1H)-yl]acetamide]
128 | < 100 | O=C(Cc1cc(F)cc(F)c1)Nn1nc(-c2ccc(Cl)cc2)c2ccccc2c1=O [Example 118, N-[4-(4-chlorophenyl)-1-oxophthalazin-2(1H)-yl]-2-(3,5-difluorophenyl)acetamide]

Reference: patent US8629143B2, “Potassium channel modulators” (AbbVie Inc., priority 2009, dated 2014)
